Like-named read-outs stand apart in the source and are kept apart here.
System: human multiple myeloma cell line, OPM-2
Test: Cell viability assay (OPM-2 10 FBS), CellTiter-Glo
Type: cell-based
Protocol: Cell viability assay (OPM-2 10 FBS)
The human multiple myeloma cell line, OPM-2, was cultured in complete growth medium containing RPMI 1640 and 10% fetal bovine serum (FBS). Cells were seeded into 384-well plates at 3000 cells/well density in complete growth medium containing 10% FBS, and incubated for 16 h with serially diluted test compounds in a 37° C. incubator with 5% CO2. Cell viability was tested using CellTiter-Glo® assay (Promega, Madison, Wis.) according to the manufacturer recommendations. Luminescence was determined using an EnVision® Multilabel plate reader 25 min after the addition of detection reagent. IC50 values were then calculated with Xlfit using a logistical 4-parameter fit model in GraphPad Prism (GraphPad Software, San Diego, Calif.) or in Genedata Screener® (Genedata, Basel, Switzerland).

[1] = Homo sapiens, OPM-2, 16 h, read-out: OPM-2 10% FBS IC50 IP, OPM-2 cells, 10% FBS, 16 h incubation
[2] = read-out: OPM-2 10% FBS IC50 IP, OPM-2 cells, 10% FBS, 16 h incubation
[3] = Homo sapiens, OPM-2, 16 h, read-out: OPM-2 10% FBS IC50 IP, OPM-2 cells, 10% FBS, 16 h, CellTiter-Glo

Compound `CO[C@]1(CN2CCN(C3(C)COC3)CC2)/C=C/C[C@H](C)[C@@H](C)S(=O)(=O)NC(=O)c2ccc3c(c2)N(C[C@@H]2CC[C@H]21)C[C@@]1(CCCc2cc(Cl)ccc21)CO3` [Example 319, (1S,3′R,6′R,7′R,8′E,11′S,12′R)-6-chloro-7′-methoxy-11′,12′-dimethyl-7′-((4-(3-methyl-3-oxetanyl)-1-piperazinyl)methyl)-3,4-dihydro-2H,15′H-spiro[naphthalene-1,22′-[20]oxa[13]thia[1,14]diazatetracyclo [14.7.2.0~3,6~.0~19,24~]pentacosa[8,16,18,24]tetraen]-15′-one 13′,13′-dioxide] has an IC50 [1] of 87 nM.

`CO[C@@]1(CC(=O)N(C)C)/C=C/C[C@H](C)[C@@H](C)S(=O)(=O)NC(=O)c2ccc3c(c2)N(C[C@@H]2CC[C@H]21)C[C@@]1(CCCc2cc(Cl)ccc21)CO3` [Example 100135, 2-((1S,3′R,6′R,7′S,8′E,11′S,12′R)-6-chloro-7′-methoxy-11′,12′-dimethyl-13′,13′-dioxido-15′-oxo-3,4-dihydro-2H-spiro[naphthalene-1,22′-[20]oxa[13]thia[1,14]diazatetracyclo [14.7.2.0~3,6~.0~19,24~]pentacosa[8,16,18,24]tetraen]-7′-yl)-N,N-dimethylacetamide] showed an IC50 (read-out: OPM-2 10% FBS IC50 IP, OPM-2 cells, 10% FBS, 16 h, CellTiter-Glo) of 161 nM.

With `C[C@@H]1[C@@H](C)C/C=C/[C@]2(CN(Cc3ccccc3)CCO2)[C@@H]2CC[C@H]2CN2C[C@@]3(CCCc4cc(Cl)ccc43)COc3ccc(cc32)C(=O)NS1(=O)=O` [Example 138, (1 S,3′R,6′R,7′R,8′E, 11′S,12′R)-4″-benzyl-6-chloro-11′,12′-dimethyl-3,4-dihydro-2H,15′H-dispiro[naphthalene-1,22′-[20]oxa[13]thia[1,14]diazatetracyclo[14.7.2.0-3,6˜.0˜19,24˜]pentacosa[8,16,18,24]tetraene-7′,2″-[1,4]oxazinan]-15′-one 13′,13′-dioxide] the IC50 [1] was > 33300 nM.

`CCO[C@]1(CN2CCN3CCOC[C@@H]3C2)CCC[C@H](C)[C@@H](CCOC)S(=O)(=O)NC(=O)c2ccc3c(c2)N(C[C@@H]2CC[C@H]21)C[C@@]1(CCCc2ccccc21)CO3` [Example 517, (1S,3′R,6′R,7′R,11′S,12′R)-7′-ethoxy-7′-((9aS)-hexahydropyrazino[2,1-c][1,4]oxazin-8(1H)-ylmethyl)-12′-(2-methoxyethyl)-11′-methyl-3,4-dihydro-2H, 15′H-spiro[naphthalene-1,22′-[20]oxa[13]thia[1,14]diazatetracyclo[14.7.2.0-3,6˜.0˜19,24˜]pentacosa[16,18,24]trien]-15′-one 13′,13′-dioxide] showed an IC50 [2] of 252 nM.

For `CCO[C@@]1(CN2CCN3CCOC[C@@H]3C2)/C=C/C[C@H](C)[C@@H](CCOC)S(=O)(=O)NC(=O)c2ccc3c(n2)N(C[C@@H]2CC[C@H]21)C[C@@]1(CCCc2cc(Cl)ccc21)CO3` [Example 369, (1S,3′R,6′R,7′S,8′E,11′S,12′R)-6-chloro-7′-ethoxy-7′-((9aS)-hexahydropyrazino[2,1-c][1,4]oxazin-8(1H)-ylmethyl)-12′-(2-methoxyethyl)-11′-methyl-3,4-dihydro-2H,15′H-spiro[naphthalene-1,22′-[20]oxa[13]thia[1,14,25]triazatetracyclo [14.7.2.0~3,6~.0~19,24~]pentacosa[8,16,18,24]tetraen]-15′-one 13′,13′-dioxide], the IC50 [1] was 71 nM.

`C[C@@H]1[C@@H](C)CCC[C@](CO)(CN2CCOCC2)[C@@H]2CC[C@H]2CN2C[C@@]3(CCCc4cc(Cl)ccc43)COc3ccc(cc32)C(=O)NS1(=O)=O` [Example 100406, (1S,3′R,6′R,7′R,11′S,12′R)-6-chloro-7′-(hydroxymethyl)-11′,12′-dimethyl-7′-(4-morpholinylmethyl)-3,4-dihydro-2H,15′H-spiro[naphthalene-1,22′-[20]oxa[13]thia[1,14]diazatetracyclo [14.7.2.0~3,6~.0~19,24~]pentacosa[16,18,24]trien]-15′-one 13′,13′-dioxide] gave an IC50 [3] of 747 nM.

Compound `CO[C@]1(CNCCN2CCOCC2)/C=C/C[C@H](C)[C@@H](C)S(=O)(=O)NC(=O)c2ccc3c(c2)N(C[C@@H]2CC[C@H]21)C[C@@]1(CCCc2cc(Cl)ccc21)CO3` [Example 36, (1S,3′R,6′R,7′R,8′E,11′S,12′R)-6-chloro-7′-methoxy-11′,12′-dimethyl-7′-(((2-(4-morpholinyl)ethyl)amino)methyl)-3,4-dihydro-2H,15′H-spiro[naphthalene-1,22′-[20]oxa[13]thia[1,14]diazatetracyclo [14.7.2.0~3,6~.0~19,24~]pentacosa[8,16,18,24]tetraen]-15′-one 13′,13′-dioxide] has an IC50 [1] of 518 nM.

With `CO[C@@]1(CC(=O)NC(C)(C)C(=O)O)/C=C/C[C@H](C)[C@@H](C)S(=O)(=O)NC(=O)c2ccc3c(c2)N(C[C@@H]2CC[C@H]21)C[C@@]1(CCCc2cc(Cl)ccc21)CO3` [Example 100546, N-(((1S,3′R,6′R,7′S,8′E,11′S,12′R)-6-chloro-7′-methoxy-11′,12′-dimethyl-13′,13′-dioxido-15′-oxo-3,4-dihydro-2H-spiro[naphthalene-1,22′-[20]oxa[13]thia[1,14]diazatetracyclo [14.7.2.0~3,6~.0~19,24~]pentacosa[8,16,18,24]tetraen]-7′-yl)acetyl)-2-methylalanine] the IC50 [3] was 440 nM.

Work on `CO[C@@]1(CN2CCN3CCN(C)C[C@@H]3C2)/C=C/C[C@H](C)[C@@H](C)S(=O)(=O)NC(=O)c2ccc3c(c2)N(C[C@@H]2CC[C@H]21)C[C@@]1(CCCc2cc(Cl)ccc21)CO3` (single isomer, unassigned) [Example 217] yielded an IC50 [2] of 192 nM.

Compound `CO[C@@]1(CC(N)=O)/C=C/C[C@H](C)[C@@H](C)S(=O)(=O)NC(=O)c2ccc3c(c2)N(C[C@@H]2CC[C@H]21)C[C@@]1(CCCc2cc(Cl)ccc21)CO3` [Example 100589, 2-((1S,3′R,6′R,7′S,8′E,11′S,12′R)-6-chloro-7′-methoxy-11′,12′-dimethyl-13′,13′-dioxido-15′-oxo-3,4-dihydro-2H-spiro[naphthalene-1,22′-[20]oxa[13]thia[1,14]diazatetracyclo [14.7.2.0~3,6~.0~19,24~]pentacosa[8,16,18,24]tetraen]-7′-yl)acetamide] has an IC50 [3] of 3330 nM.

`CO[C@]1(CN2CCN3CCN(C(C)=O)C[C@@H]3C2)/C=C/C[C@H](C)[C@@H](C)S(=O)(=O)NC(=O)c2ccc3c(c2)N(C[C@@H]2CC[C@H]21)C[C@@]1(CCCc2cc(Cl)ccc21)CO3` (single isomer, unassigned) [Example 230] gave an IC50 [2] of 70 nM.

For `CO[C@@]1(CN2CCN3CCCC[C@@H]3C2)/C=C/C[C@H](C)[C@@H](Cc2ccccc2)S(=O)(=O)NC(=O)c2ccc3c(c2)N(C[C@@H]2CC[C@H]21)C[C@@]1(CCCc2cc(Cl)ccc21)CO3` (single isomer, unassigned) [Example 104], the IC50 [2] was 782 nM.

Compound `C[C@@H]1[C@@H](C)C/C=C/[C@@](O)(CN2CCOC[C@@H]2Cn2ccnc2)[C@@H]2CC[C@H]2CN2C[C@@]3(CCCc4cc(Cl)ccc43)COc3ccc(cc32)C(=O)NS1(=O)=O` [Example 100, (1 S,3′R,6′R,7′S,8′E,11′S, 12′R)-6-chloro-7′-hydroxy-7′-(((3S)-3-(1H-imidazol-1-ylmethyl)-4-morpholinyl)methyl)-11′,12′-dimethyl-3,4-dihydro-2H, 15′H-spiro[naphthalene-1,22′-[20]oxa[13]thia[1,14]diazatetracyclo[14.7.2.0-3,6˜.0˜19,24˜]pentacosa[8,16,18,24]tetraen]-15′-one 13′,13′-dioxide] has an IC50 [1] of 1650 nM.

With `CO[C@@]1(CC(=O)NCc2ncco2)/C=C/C[C@H](C)[C@@H](C)S(=O)(=O)NC(=O)c2ccc3c(c2)N(C[C@@H]2CC[C@H]21)C[C@@]1(CCCc2cc(Cl)ccc21)CO3` [Example 100577, 2-((1S,3′R,6′R,7′S,8′E,11′S,12′R)-6-chloro-7′-methoxy-11′,12′-dimethyl-13′,13′-dioxido-15′-oxo-3,4-dihydro-2H-spiro[naphthalene-1,22′-[20]oxa[13]thia[1,14]diazatetracyclo [14.7.2.0~3,6~.0~19,24~]pentacosa[8,16,18,24]tetraen]-7′-yl)-N-(1,3-oxazol-2-ylmethyl)acetamide] the IC50 [3] was 2020 nM.

In the case of `C[C@@H]1[C@@H](C)C/C=C/C(O)(CN2CCN3CCCC[C@@H]3C2)[C@@H]2CC[C@H]2CN2C[C@@]3(CCCc4cc(Cl)ccc43)COc3ccc(cc32)C(=O)NS1(=O)=O` (single isomer, unassigned) [Example 242], the IC50 [2] is reported as 791 nM.

In the case of `C[C@@H]1[C@@H](C)C/C=C/[C@](O)(C#CCCc2ccccn2)[C@@H]2CC[C@H]2CN2C[C@@]3(CCCc4cc(Cl)ccc43)COc3ccc(cc32)C(=O)NS1(=O)=O` [Example 100455, (1S,3′R,6′R,7′R,8′E,11′S,12′R)-6-chloro-7′-hydroxy-11′,12′-dimethyl-7′-(4-(2-pyridinyl)-1-butyn-1-yl)-3,4-dihydro-2H,15′H-spiro[naphthalene-1,22′-[20]oxa[13]thia[1,14]diazatetracyclo [14.7.2.0~3,6~.0~19,24~]pentacosa[8,16,18,24]tetraen]-15′-one 13′,13′-dioxide], the IC50 [3] is reported as 140 nM.

For `CO[C@@]1(CN2CCN3CCN(C(C)=O)C[C@@H]3C2)/C=C/C[C@H](C)[C@@H](C)S(=O)(=O)NC(=O)c2ccc3c(c2)N(C[C@@H]2CC[C@H]21)C[C@@]1(CCCc2cc(Cl)ccc21)CO3` [Example 214], the IC50 [2] was 84 nM.

From patent US10821115B2, “Compounds that inhibit Mcl-1 protein” (priority 2017, dated 2020)
